Results reported in US10934274B2, “Quinoline derivatives as TAM RTK inhibitors” (Qurient Co., Ltd., priority 2015, dated 2021).

Legend:
Axl = biological target: T1, Axl (Homo sapiens, UniProt P30530); assay: LanthaScreen Eu kinase binding assay, Axl; conditions: Tracer 236
T1 construct: purchased Life Technologies
T1 sequence (P30530 26-894): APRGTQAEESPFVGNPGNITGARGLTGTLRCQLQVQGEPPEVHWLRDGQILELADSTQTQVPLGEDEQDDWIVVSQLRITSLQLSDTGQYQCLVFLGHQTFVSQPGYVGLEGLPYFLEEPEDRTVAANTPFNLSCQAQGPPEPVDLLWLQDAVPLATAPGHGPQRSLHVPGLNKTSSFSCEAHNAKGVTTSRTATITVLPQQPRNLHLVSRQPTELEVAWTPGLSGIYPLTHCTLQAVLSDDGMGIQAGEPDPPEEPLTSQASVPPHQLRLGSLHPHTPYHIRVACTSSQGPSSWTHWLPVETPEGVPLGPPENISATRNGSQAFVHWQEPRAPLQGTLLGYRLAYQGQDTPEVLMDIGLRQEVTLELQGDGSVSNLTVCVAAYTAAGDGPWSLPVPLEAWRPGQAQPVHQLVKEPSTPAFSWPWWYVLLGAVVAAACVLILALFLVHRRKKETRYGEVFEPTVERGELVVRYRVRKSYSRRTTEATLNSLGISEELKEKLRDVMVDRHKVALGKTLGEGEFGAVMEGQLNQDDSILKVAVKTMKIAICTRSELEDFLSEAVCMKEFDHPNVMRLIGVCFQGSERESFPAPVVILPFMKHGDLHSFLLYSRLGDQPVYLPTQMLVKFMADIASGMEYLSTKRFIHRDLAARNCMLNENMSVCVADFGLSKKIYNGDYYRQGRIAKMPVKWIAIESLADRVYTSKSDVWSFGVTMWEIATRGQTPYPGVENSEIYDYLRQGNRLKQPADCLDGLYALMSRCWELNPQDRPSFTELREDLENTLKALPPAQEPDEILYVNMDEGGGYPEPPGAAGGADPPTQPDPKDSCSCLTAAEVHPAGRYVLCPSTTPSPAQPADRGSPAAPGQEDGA

TYRO3 = biological target: T2, TYRO3 (Homo sapiens, UniProt Q06418); assay: LanthaScreen Eu kinase binding assay, TYRO3; conditions: Tracer 236
T2 construct: purchased Life Technologies
T2 sequence (Q06418 41-890): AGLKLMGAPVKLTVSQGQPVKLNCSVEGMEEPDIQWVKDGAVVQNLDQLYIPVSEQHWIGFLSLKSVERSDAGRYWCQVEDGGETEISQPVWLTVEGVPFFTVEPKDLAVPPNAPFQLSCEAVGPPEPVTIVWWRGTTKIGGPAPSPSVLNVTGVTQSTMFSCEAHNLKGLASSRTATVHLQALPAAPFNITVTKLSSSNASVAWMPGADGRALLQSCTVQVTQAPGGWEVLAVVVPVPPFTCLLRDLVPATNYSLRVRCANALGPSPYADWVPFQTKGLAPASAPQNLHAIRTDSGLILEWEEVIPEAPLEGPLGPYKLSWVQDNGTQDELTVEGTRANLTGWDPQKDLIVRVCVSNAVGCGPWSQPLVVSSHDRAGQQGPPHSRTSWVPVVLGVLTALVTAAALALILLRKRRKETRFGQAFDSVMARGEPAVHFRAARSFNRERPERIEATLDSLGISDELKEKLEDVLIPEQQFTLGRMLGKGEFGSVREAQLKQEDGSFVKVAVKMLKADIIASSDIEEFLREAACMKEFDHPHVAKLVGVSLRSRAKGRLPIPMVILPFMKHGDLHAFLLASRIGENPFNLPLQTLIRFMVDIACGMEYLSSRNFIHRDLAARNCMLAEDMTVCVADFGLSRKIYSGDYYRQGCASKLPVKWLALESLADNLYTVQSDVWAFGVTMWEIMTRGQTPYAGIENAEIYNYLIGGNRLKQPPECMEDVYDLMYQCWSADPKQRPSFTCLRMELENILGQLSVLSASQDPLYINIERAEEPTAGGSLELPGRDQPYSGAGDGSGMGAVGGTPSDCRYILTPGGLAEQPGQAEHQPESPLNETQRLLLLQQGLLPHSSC

SMILES	Kd (Axl)	Kd (TYRO3)
COc1cc2nccc(Oc3ccc(NC(=O)c4nn(-c5cncnc5C5CC5)cc4OCC(F)(F)F)nc3)c2cc1OC [Compound 261]	< 0.1 µM	< 0.1 µM
CCOc1cn(C)nc1C(=O)Nc1ccc(Oc2ccnc3cc(OC)c(OC)cc23)cn1 [Compound 29]	0.1 to 1 µM	0.1 to 1 µM
CCOc1cn(-c2ccnnc2)nc1C(=O)Nc1ccc(Oc2ccnc3cc(OC)c(OC)cc23)cn1 [Compound 40]	< 0.1 µM	≥ 1 µM
CCOc1cn(-c2cnc(N)nc2)nc1C(=O)Nc1ccc(Oc2ccnc3cc(OC)c(OC(F)(F)F)cc23)cn1 [Compound 241]	< 0.1 µM	≥ 1 µM
COc1cc2c(Oc3ccc(NC(=O)c4nn(-c5cnc(N)cn5)cc4OCC(F)(F)F)c(F)c3)ccnc2cc1OC(C)C [Compound 246]	< 0.1 µM	< 0.1 µM
COc1cc2nccc(Oc3ccc(NC(=O)c4nn(-c5cnc(N)nc5)cc4OCC(F)(F)F)c(F)c3)c2cc1OC [Compound 259]	< 0.1 µM	< 0.1 µM
CCOc1cn(-c2ccncc2Cl)nc1C(=O)Nc1ccc(Oc2ccnc3cc(OC)c(OC)cc23)cn1 [Compound 26]	< 0.1 µM	0.1 to 1 µM
CCOc1cn(-c2cc[nH]c2)nc1C(=O)Nc1ccc(Oc2ccnc3cc(OC)c(OC)cc23)cn1 [Compound 32]	< 0.1 µM	< 0.1 µM
CCOc1cn(C(C)(C)C(=O)NC)nc1C(=O)Nc1ccc(Oc2ccnc3cc(OC)c(OC)cc23)cn1 [Compound 68]	< 0.1 µM	≥ 1 µM
CCOc1cn(-c2ccoc2)nc1C(=O)Nc1ccc(Oc2ccnc3cc(OC)c(OC)cc23)cn1 [Compound 33]	< 0.1 µM	< 0.1 µM
CCOc1cn(CCOC)nc1C(=O)Nc1ccc(Oc2ccnc3cc(OC)c(OC)cc23)cn1 [Compound 64]	< 0.1 µM	< 0.1 µM
CCOc1cn(-c2ccncc2C)nc1C(=O)Nc1ccc(Oc2ccnc3cc(OC)c(OC)cc23)cn1 [Compound 34]	< 0.1 µM	< 0.1 µM
CCOc1cn(CC(C)=O)nc1C(=O)Nc1ccc(Oc2ccnc3cc(OC)c(OC)cc23)cn1 [Compound 66]	< 0.1 µM	0.1 to 1 µM
COc1cc2nccc(Oc3ccc(NC(=O)c4nn(-c5cnc(N)nc5)cc4OCC4CC4)nc3)c2cc1OC [Compound 240]	< 0.1 µM	< 0.1 µM
CCOc1cn(C2CCCN(C(C)=O)C2)nc1C(=O)Nc1ccc(Oc2ccnc3cc(OC)c(OC)cc23)cc1F (stereo not drawn) [Compound 224]	< 0.1 µM	0.1 to 1 µM
COc1cc2nccc(Oc3ccc(NC(=O)c4nn(-c5ccc(F)cc5F)cc4OCC4CC4)nc3)c2cc1OC [Compound 267]	< 0.1 µM	< 0.1 µM
CCOc1cn(-c2ncco2)nc1C(=O)Nc1ccc(Oc2ccnc3cc(OC)c(OC)cc23)cn1 [Compound 59]	< 0.1 µM	< 0.1 µM
COc1cc2nccc(Oc3ccc(NC(=O)c4nn(-c5cnc(N)nc5)cc4OCC4COC4)nc3)c2cc1OC [Compound 269]	< 0.1 µM	< 0.1 µM
CCOc1cn(CCOC(F)(F)F)nc1C(=O)Nc1ccc(Oc2ccnc3cc(OC)c(OC)cc23)cn1 [Compound 38]	< 0.1 µM	0.1 to 1 µM
CCC(C)Oc1cc2nccc(Oc3ccc(NC(=O)c4nn(-c5cccnc5)cc4OCC(F)(F)F)nc3)c2cc1OC (stereo not drawn) [Compound 234]	< 0.1 µM	< 0.1 µM
CCOc1cn(-c2cccs2)nc1C(=O)Nc1ccc(Oc2ccnc3cc(OC)c(OC)cc23)cn1 [Compound 17]	< 0.1 µM	< 0.1 µM
CCOc1cn(-c2ccsc2)nc1C(=O)Nc1ccc(Oc2ccnc3cc(OC)c(OC)cc23)cn1 [Compound 18]	< 0.1 µM	< 0.1 µM
CCOc1cn(-c2nccnc2C(C)(O)CO)nc1C(=O)Nc1ccc(Oc2ccnc3cc(OC)c(OC)cc23)cc1F (stereo not drawn) [Compound 229]	< 0.1 µM	< 0.1 µM
COc1cc2nccc(Oc3ccc(NC(=O)c4nn(-c5ccc(F)cc5F)cc4OCC(F)(F)F)nc3)c2cc1OC [Compound 268]	< 0.1 µM	< 0.1 µM
